The values that follow are results of earlier work, collected in patent US20250375548A1, “STERILIZATION PROCESS, SYSTEM AND PRODUCT INCLUDING MOLECULAR MOBILITY ENHANCER” (TEKDRY INTERNATIONAL, INC., priority 2019, published 2025).

For data set [1] the following is noted: @ 25° C.
For data set [2] the following is noted: 1,800 ppm at 44° C.

Regarding `CC(=O)OO` [peracetic acid, reference compound], the vapor pressure in data set [1] is listed as 14.5 mmHg.

Consider `O=COO` [performic acid], for which, in data set [1], the vapor pressure is on record as 78 mmHg. The D-value result in data set [2] is reported as “lower than five”. For `CCOCC` [diethyl ether], in data set [1], the vapor pressure is listed as 520 mmHg.
